Measured values published in patent US6642391B2, “Amycomycin, a process for its production and its use as a pharmaceutical” (priority 1999, dated 2003).
Converted amounts (≈) assume the structure as drawn. Where two headings read alike, the source gives them in different places.

Columns and labels:
[1] = test system: gram-positive bacteria such as Staphylo- and Enterococci; experiment: Antibacterial activity; assay type: cell-based; settings: particularly against gram-positive bacteria such as Staphylo- and Enterococci
Source text: (§1) Lately, these strains have proven increasingly to be problem strains, i.e., those microorganisms that have become resistant to existing antibiotics. The superiority of the present compound in relation to other antibiotics is shown, for example, in the inhibition of vancomycin- and teicoplanin-resistant strains such as, for example, E. faecalis, E. faecium or E. gallinarium.

[2] = test system: S.aureus 011GO71; experiment: MIC micro-dilutions test; assay type: cell-based; settings: Staphylococcus aureus
Source text: as §1

[3] = test system: S.aureus 011CB20; experiment: MIC micro-dilutions test; assay type: cell-based; settings: Staphylococcus aureus
Source text: as §1

[4] = test system: S.aureus 011GO64; experiment: MIC micro-dilutions test; assay type: cell-based; settings: Staphylococcus aureus
Source text: as §1

[5] = test system: E.gallinarium O2D0HM8; experiment: MIC micro-dilutions test; assay type: cell-based; settings: read-out: Minimum Inhibition Concentration
Source text: as §1

[6] = test system: E.faecalis O2D2HT10; experiment: MIC micro-dilutions test; assay type: cell-based; settings: Enterococcus faecalis
Source text: as §1

[7] = test system: P.aeruginosa 1771 391HT2; experiment: MIC micro-dilutions test; assay type: cell-based; settings: Pseudomonas aeruginosa, 1771391HT2, Gram-negative, read-out: Minimum Inhibition Concentration
Source text: as §1

[8] = test system: S.aureus 011HT3; experiment: MIC micro-dilutions test; assay type: cell-based; settings: Staphylococcus aureus
Source text: as §1

[9] = test system: S.pyogenes O2A1UC1; experiment: MIC micro-dilutions test; assay type: cell-based; settings: Streptococcus pyogenes
Source text: as §1

[10] = test system: E.faecium O2D3HM3; experiment: MIC micro-dilutions test; assay type: cell-based; settings: Enterococcus faecium
Source text: as §1

[11] = test system: S.epidermidis 012GO20; experiment: MIC micro-dilutions test; assay type: cell-based; settings: Staphylococcus epidermidis; S.epidermidis 012GO20, oxa S ery S tet R; Gram-positive; read-out: Minimum Inhibition Concentration
Source text: as §1

[12] = test system: E.faecium O2D3AP9; experiment: MIC micro-dilutions test; assay type: cell-based; settings: Enterococcus faecium
Source text: as §1

[13] = test system: S.aureus 011GR91; experiment: MIC micro-dilutions test; assay type: cell-based; settings: Staphylococcus aureus
Source text: as §1

[14] = test system: S.aureus 011DU5; experiment: MIC micro-dilutions test; assay type: cell-based; settings: Staphylococcus aureus
Source text: as §1

[15] = test system: S.aureus 011HT18; experiment: MIC micro-dilutions test; assay type: cell-based; settings: Staphylococcus aureus
Source text: as §1

[16] = test system: Staph.coag.negative 012HT5; experiment: MIC micro-dilutions test; assay type: cell-based; settings: read-out: Minimum Inhibition Concentration
Source text: as §1

[17] = test system: S.mitis O2mitGR16; experiment: MIC micro-dilutions test; assay type: cell-based; settings: Streptococcus mitis
Source text: as §1

[18] = test system: E.faecalis O2D2DU18; experiment: MIC micro-dilutions test; assay type: cell-based; settings: Enterococcus faecalis
Source text: as §1

[19] = test system: P.aeruginosa 1771m 391HT3; experiment: MIC micro-dilutions test; assay type: cell-based; settings: Pseudomonas aeruginosa, 1771M391HT3, read-out: Minimum Inhibition Concentration
Source text: as §1

[20] = test system: Strepto gr.G O2G0CB2; experiment: MIC micro-dilutions test; assay type: cell-based; settings: read-out: Minimum Inhibition Concentration
Source text: as §1

[21] = test system: S.pyogenes O2A1SJ1; experiment: MIC micro-dilutions test; assay type: cell-based; settings: Streptococcus pyogenes
Source text: as §1

[22] = test system: E.faecium O2D3HT12; experiment: MIC micro-dilutions test; assay type: cell-based; settings: Enterococcus faecium
Source text: as §1

[23] = test system: E.faecalis O2D2UC5; experiment: MIC micro-dilutions test; assay type: cell-based; settings: Enterococcus faecalis
Source text: as §1

[24] = test system: S.aureus 011HT1; experiment: MIC micro-dilutions test; assay type: cell-based; settings: Staphylococcus aureus
Source text: as §1

[25] = test system: S.pyogenes O2A1FI6; experiment: MIC micro-dilutions test; assay type: cell-based; settings: Streptococcus pyogenes
Source text: as §1

[26] = test system: E.faecalis O2D2HM9; experiment: MIC micro-dilutions test; assay type: cell-based; settings: Enterococcus faecalis
Source text: as §1

[27] = test system: S.epidermidis 012GO42; experiment: MIC micro-dilutions test; assay type: cell-based; settings: Staphylococcus epidermidis; S.epidermidis 012GO42, oxa R; Gram-positive; read-out: Minimum Inhibition Concentration
Source text: as §1

[28] = test system: S.pneumoniae 030BI2; experiment: MIC micro-dilutions test; assay type: cell-based; settings: Streptococcus pneumoniae
Source text: as §1

[29] = Physical-chemical characteristics: solubility; assay type: physicochemical; settings: solvents: methanol, DMSO, pyridine
Source text: The physical-chemical as well as the spectroscopic characteristics of the compound Amycomycin according to the invention are as follows: […]

[30] = test system: E.faecium O2D3IP2; experiment: MIC micro-dilutions test; assay type: cell-based; settings: Enterococcus faecium; E.faecium O2D3IP2, tei R van R ery R tet R; Gram-positive; read-out: Minimum Inhibition Concentration
Source text: as §1

[31] = test system: S.milleri O2milGR12; experiment: MIC micro-dilutions test; assay type: cell-based; settings: S.milleri O2milGR12, ery S van S; Gram-positive; read-out: Minimum Inhibition Concentration
Source text: as §1

For `C/C(=C\CC(O)CC(O)CCC(C)C(O)C(C)C(O)CCCC(O)C(C)C(O)/C(C)=C/C(C)C(=O)/C(C)=C/C(O)C(O)CC(O)CC(O)C(C)CCC(O)CC(O)CCC(C)C(O)C(C)C(O)C(C)C)C(=O)C1=C(O)/C(=C/C(C)C)N(C)C1=O` (stereo not drawn) [Amycomycin], the antibacterial activity [1] was “extraordinary antibacterial activity”, the MIC ([2]; S.aureus 011GO71, ofl S oxa R ery S tet R, Gram-positive, read-out: Minimum Inhibition Concentration) was 0.15 µg/mL (≈ 0.125 µM) and the MIC ([3]; S.aureus 011CB20, oxa R ery Rc tet R, Gram-positive, read-out: Minimum Inhibition Concentration) was 0.08 µg/mL (≈ 0.0667 µM). It also gave an MIC ([4]; S.aureus 011GO64, ofl R oxa R ery Rc tet R, Gram-positive, read-out: Minimum Inhibition Concentration) of 0.3 µg/mL (≈ 0.25 µM), an MIC ([5]; E.gallinarium O2D0HM8, van C tet R ery S, Gram-positive) of 1.2 µg/mL (≈ 1 µM) and an MIC ([6]; E.faecalis O2D2HT10, nov R van S tet R, Gram-positive, read-out: Minimum Inhibition Concentration) of 1.2 µg/mL (≈ 1 µM). For the same compound, the MIC [7] was > 40 µg/mL, the MIC ([8]; S.aureus 011HT3, oxa S ery S, Gram-positive, read-out: Minimum Inhibition Concentration) was 0.08 µg/mL (≈ 0.0667 µM) and the MIC ([9]; S.pyogenes O2A1UC1, van S ery S, Gram-positive, read-out: Minimum Inhibition Concentration) was 0.6 µg/mL (≈ 0.501 µM). It also gave an MIC ([10]; E.faecium O2D3HM3, nov S van A ery R tei R, Gram-positive, read-out: Minimum Inhibition Concentration) of 1.2 µg/mL (≈ 1 µM), an MIC [11] of 0.3 µg/mL (≈ 0.25 µM) and an MIC ([12]; E.faecium O2D3AP9, nov S van R ery S tei R, Gram-positive, read-out: Minimum Inhibition Concentration) of 0.6 µg/mL (≈ 0.501 µM). The MIC ([13]; S.aureus 011GR91, pri R oxa R ery R nov R, Gram-positive, read-out: Minimum Inhibition Concentration) was 1.2 µg/mL (≈ 1 µM), the MIC ([14]; S.aureus 011DU5, nov R tet R, Gram-positive, read-out: Minimum Inhibition Concentration) was 0.08 µg/mL (≈ 0.0667 µM) and the MIC ([15]; ATCC13709, S.aureus 011HT18, ATCC 13709 Smith, Gram-positive, read-out: Minimum Inhibition Concentration) was 0.08 µg/mL (≈ 0.0667 µM). It also gave an MIC ([16]; Staph.coag.negative 012HT5, ofl R oxa R tet R, Gram-positive) of 0.15 µg/mL (≈ 0.125 µM), an MIC ([17]; S.mitis O2mitGR16, ery Ri van S, Gram-positive, read-out: Minimum Inhibition Concentration) of 1.2 µg/mL (≈ 1 µM) and an MIC ([18]; E.faecalis O2D2DU18, tet R nov R, Gram-positive, read-out: Minimum Inhibition Concentration) of 1.2 µg/mL (≈ 1 µM). For the same compound, the MIC [19] was > 40 µg/mL, the MIC ([20]; Strepto gr.G O2G0CB2, tet R rif R nov R, Gram-positive) was 0.6 µg/mL (≈ 0.501 µM) and the MIC ([21]; S.pyogenes O2A1SJ1, van S ery Rc, Gram-positive, read-out: Minimum Inhibition Concentration) was 0.3 µg/mL (≈ 0.25 µM). The MIC ([22]; E.faecium O2D3HT12, tei R van R ery R tet R, Gram-positive, read-out: Minimum Inhibition Concentration) was 0.6 µg/mL (≈ 0.501 µM), the MIC ([23]; ATCC29212, E.faecalis O2D2UC5, ATCC 29212 nov R, Gram-positive, read-out: Minimum Inhibition Concentration) was 2.5 µg/mL (≈ 2.09 µM) and the MIC ([24]; S.aureus 011HT1, nov R, Gram-positive, read-out: Minimum Inhibition Concentration) was ≤ 0.04 µg/mL. It also gave an MIC ([25]; S.pyogenes O2A1FI6, ery R, Gram-positive, read-out: Minimum Inhibition Concentration) of 0.6 µg/mL (≈ 0.501 µM), an MIC ([26]; E.faecalis O2D2HM9, nov R van B ery R tei S, Gram-positive, read-out: Minimum Inhibition Concentration) of 2.5 µg/mL (≈ 2.09 µM) and an MIC [27] of 0.3 µg/mL (≈ 0.25 µM). The MIC ([28]; S.pneumoniae 030BI2, ery R, Gram-positive, read-out: Minimum Inhibition Concentration) was 0.15 µg/mL (≈ 0.125 µM) and the “Solubility (Appearance)” value [29] was “colorless solid, soluble in methanol, DMSO,”.

`CN[C@H](CC(C)C)C(=O)N[C@H]1C(=O)N[C@@H](CC(N)=O)C(=O)N[C@H]2C(=O)N[C@H]3C(=O)N[C@H](C(=O)N[C@H](C(=O)O)c4cc(O)cc(O)c4-c4cc3ccc4O)[C@H](O)c3ccc(c(Cl)c3)Oc3cc2cc(c3O[C@@H]2O[C@H](CO)[C@@H](O)[C@H](O)[C@H]2O[C@H]2C[C@](C)(N)[C@H](O)[C@H](C)O2)Oc2ccc(cc2Cl)[C@H]1O` [Vancomycin, reference compound] showed an MIC ([2]; 011GO71, read-out: Minimum Inhibition Concentration) of 0.6 µg/mL (≈ 0.414 µM), an MIC ([3]; 011CB20, read-out: Minimum Inhibition Concentration) of 0.15 µg/mL (≈ 0.104 µM) and an MIC ([4]; 011GO64, read-out: Minimum Inhibition Concentration) of 1.2 µg/mL (≈ 0.828 µM). For the same compound, the MIC [5] was > 40 µg/mL, the MIC ([6]; O2D2HT10, read-out: Minimum Inhibition Concentration) was 0.6 µg/mL (≈ 0.414 µM) and the MIC ([8]; 011HT3, read-out: Minimum Inhibition Concentration) was 0.3 µg/mL (≈ 0.207 µM). For the same compound, the MIC [30] was > 40 µg/mL, the MIC ([9]; O2A1UC1, read-out: Minimum Inhibition Concentration) was 0.15 µg/mL (≈ 0.104 µM) and the MIC ([10]; O2D3HM3, read-out: Minimum Inhibition Concentration) was > 40 µg/mL. The MIC ([12]; O2D3AP9, read-out: Minimum Inhibition Concentration) was > 40 µg/mL, the MIC ([13]; 011GR91, read-out: Minimum Inhibition Concentration) was 1.2 µg/mL (≈ 0.828 µM) and the MIC ([14]; 011DU5, read-out: Minimum Inhibition Concentration) was 0.15 µg/mL (≈ 0.104 µM). It also gave an MIC [31] of 0.3 µg/mL (≈ 0.207 µM), an MIC ([15]; ATCC13709, read-out: Minimum Inhibition Concentration) of 0.3 µg/mL (≈ 0.207 µM) and an MIC [16] of 0.6 µg/mL (≈ 0.414 µM). For the same compound, the MIC ([17]; O2MITGR16, read-out: Minimum Inhibition Concentration) was 0.3 µg/mL (≈ 0.207 µM), the MIC ([18]; O2D2DU18, read-out: Minimum Inhibition Concentration) was 0.3 µg/mL (≈ 0.207 µM) and the MIC [20] was 0.15 µg/mL (≈ 0.104 µM). For the same compound, the MIC ([21]; O2A1SJ1, read-out: Minimum Inhibition Concentration) was 0.15 µg/mL (≈ 0.104 µM), the MIC ([22]; O2D3HT12, read-out: Minimum Inhibition Concentration) was > 40 µg/mL and the MIC ([23]; ATCC29212, read-out: Minimum Inhibition Concentration) was 2.5 µg/mL (≈ 1.73 µM). The MIC ([24]; 011HT1, read-out: Minimum Inhibition Concentration) was 0.08 µg/mL (≈ 0.0552 µM), the MIC ([25]; O2A1FI6, read-out: Minimum Inhibition Concentration) was 0.08 µg/mL (≈ 0.0552 µM) and the MIC ([26]; O2D2HM9, read-out: Minimum Inhibition Concentration) was > 40 µg/mL. The MIC ([28]; 030BI2, read-out: Minimum Inhibition Concentration) was 0.15 µg/mL (≈ 0.104 µM).
